Experimental data taken from PubChem BioAssay AID212 (DTP/NCI, 2004).
“And” between values parts separate entries of the source, which are not always exact repeats. Equal values may be shown once. Records with an inconclusive call do not appear.

Tested on: BDF1 mice, colon carcinoma 38 sc, T/C %
Experiment: NCI In Vivo Anticancer Drug Screen. Data for tumor model Colon Carcinoma 38 (subcutaneous) in B6D2F1 (BDF1) mice
Details: endpoint: median tumor weight (est.), higher = larger tumour
Procedure: The antitumor activity of compounds was measured in mice bearing transplantable tumors. Survival or tumor size were measured and the results are expressed as the measurement made in the treated group (T) divided by the measurement made in the vehicle treated control group (C). The tumor model used in this assay is Colon Carcinoma 38 (subcutaneous) in B6D2F1 (BDF1) mice

[1] = dose: 25.0 mg/kg/injection, schedule: Q07DX002 (ip), vehicle: saline
[2] = dose: 100.0 mg/kg/injection, schedule: Q07DX002 (ip), vehicle: saline
[3] = dose: 25.0 mg/kg/injection, schedule: Q07DX002 (ip), vehicle: saline with Tween-80
[4] = dose: 50.0 mg/kg/injection, schedule: Q07DX002 (ip), vehicle: saline with Tween-80
[5] = dose: 100.0 mg/kg/injection, schedule: Q07DX002 (ip), vehicle: saline with Tween-80
[6] = dose: 200.0 mg/kg/injection, schedule: Q07DX002 (ip), vehicle: saline with Tween-80
[7] = dose: 400.0 mg/kg/injection, schedule: Q07DX002 (ip), vehicle: saline with Tween-80
[8] = dose: 100.0 mg/kg/injection, schedule: Q07DX002 (ip), vehicle: Klucel (hydroxypropylcellulose) (HPC)
[9] = dose: 200.0 mg/kg/injection, schedule: Q07DX002 (ip), vehicle: Klucel (hydroxypropylcellulose) (HPC)
[10] = dose: 400.0 mg/kg/injection, schedule: Q07DX002 (ip), vehicle: Klucel (hydroxypropylcellulose) (HPC)
[11] = dose: 12.5 mg/kg/injection, schedule: Q07DX002 (ip), vehicle: saline with Tween-80
[12] = dose: 6.25 mg/kg/injection, schedule: Q07DX002 (ip), vehicle: Klucel (hydroxypropylcellulose) (HPC)
[13] = dose: 12.5 mg/kg/injection, schedule: Q07DX002 (ip), vehicle: Klucel (hydroxypropylcellulose) (HPC)
[14] = dose: 25.0 mg/kg/injection, schedule: Q07DX002 (ip), vehicle: Klucel (hydroxypropylcellulose) (HPC)
[15] = dose: 50.0 mg/kg/injection, schedule: Q07DX002 (ip), vehicle: Klucel (hydroxypropylcellulose) (HPC)
[16] = dose: 40.0 mg/kg/injection, schedule: Q07DX003 (ip), vehicle: Klucel (hydroxypropylcellulose) (HPC)
[17] = dose: 80.0 mg/kg/injection, schedule: Q07DX003 (ip), vehicle: Klucel (hydroxypropylcellulose) (HPC)
[18] = dose: 160.0 mg/kg/injection, schedule: Q07DX003 (ip), vehicle: Klucel (hydroxypropylcellulose) (HPC)
[19] = dose: 320.0 mg/kg/injection, schedule: Q07DX003 (ip), vehicle: Klucel (hydroxypropylcellulose) (HPC)
[20] = dose: 640.0 mg/kg/injection, schedule: Q07DX003 (ip), vehicle: Klucel (hydroxypropylcellulose) (HPC)

With CNC(=O)ON(C(C)=O)C(=O)NC the T/C [1] was 87 % of control and 106 % of control and the T/C [2] was 103 % of control.
O.O.[NH-]C1CCCCC1[NH-].[Pt+2] (stereo not drawn) was tested, and the T/C (dose: 1.25 mg/kg/injection, schedule: Q07DX002 (ip), vehicle: dextrose) was 98 % of control, the T/C (dose: 10.0 mg/kg/injection, schedule: Q07DX002 (ip), vehicle: dextrose) was 61 % of control and 62 % of control and the T/C (dose: 20.0 mg/kg/injection, schedule: Q07DX002 (ip), vehicle: dextrose) was 37 % of control and 43 % of control. For the same molecule, the T/C (dose: 40.0 mg/kg/injection, schedule: Q07DX002 (ip), vehicle: dextrose) was 20 % of control.
COc1cc([C@@H]2c3cc4c(c(O)c3C[C@H]3COC(=O)[C@@H]32)OCO4)cc(OC)c1OC was tested, and the T/C (dose: 1.0 mg/kg/injection, schedule: Q07DX002 (ip), vehicle: saline) was 81 % of control, the T/C (dose: 2.0 mg/kg/injection, schedule: Q07DX002 (ip), vehicle: saline) was 67 % of control and the T/C (dose: 4.0 mg/kg/injection, schedule: Q07DX002 (ip), vehicle: saline) was 76 % of control. The T/C (dose: 8.0 mg/kg/injection, schedule: Q07DX002 (ip), vehicle: saline) was 73 % of control and the T/C (dose: 16.0 mg/kg/injection, schedule: Q07DX002 (ip), vehicle: saline) was 70 % of control.
With CCOC(=O)N1CCc2nc3ccc(Cl)cc3cc21 the T/C [3] was 68 % of control, the T/C [4] was 68 % of control and the T/C [5] was 166 % of control. The T/C [6] was 79 % of control and the T/C [7] was 111 % of control.
C=C1C(=O)OC2/C=C(\CO)C(OC(C)=O)CC(O)/C(C)=C/C(OC(=O)C(C)CC)C12 (stereo not drawn) was tested, and the T/C [8] was 165 % of control, the T/C [9] was 95 % of control and the T/C [10] was 178 % of control.
For O=c1c(O)c(-c2cc(O)c(O)c(O)c2)oc2cc(O)cc(O)c12, the T/C (dose: 6.25 mg/kg/injection, schedule: Q07DX002 (ip), vehicle: other) was 75 % of control, the T/C (dose: 12.5 mg/kg/injection, schedule: Q07DX002 (ip), vehicle: other) was 87 % of control and the T/C [11] was 152 % of control and 172 % of control. For the same molecule, the T/C (dose: 25.0 mg/kg/injection, schedule: Q07DX002 (ip), vehicle: other) was 73 % of control, the T/C [3] was 113 % of control and 107 % of control and the T/C (dose: 50.0 mg/kg/injection, schedule: Q07DX002 (ip), vehicle: other) was 96 % of control. The T/C [4] was 120 % of control and 107 % of control, the T/C (dose: 100.0 mg/kg/injection, schedule: Q07DX002 (ip), vehicle: other) was 65 % of control and the T/C [5] was 161 % of control and 214 % of control. The T/C (dose: 200.0 mg/kg/injection, schedule: Q07DX002 (ip), vehicle: other) was 98 % of control, the T/C [6] was 187 % of control and the T/C (dose: 400.0 mg/kg/injection, schedule: Q07DX002 (ip), vehicle: other) was 77 % of control. The T/C [7] was 116 % of control and 100 % of control.
For CN(C)N=Nc1cccc(C(N)=O)c1, the T/C (dose: 10.0 mg/kg/injection, schedule: Q07DX002 (ip), vehicle: Klucel (hydroxypropylcellulose) (HPC)) was 86 % of control, the T/C (dose: 20.0 mg/kg/injection, schedule: Q07DX002 (ip), vehicle: Klucel (hydroxypropylcellulose) (HPC)) was 86 % of control and the T/C (dose: 20.0 mg/kg/injection, schedule: Q07DX002 (ip), vehicle: saline) was 97 % of control. The T/C (dose: 40.0 mg/kg/injection, schedule: Q07DX002 (ip), vehicle: Klucel (hydroxypropylcellulose) (HPC)) was 44 % of control, the T/C (dose: 40.0 mg/kg/injection, schedule: Q07DX002 (ip), vehicle: saline) was 114 % of control and 104 % of control and the T/C (dose: 80.0 mg/kg/injection, schedule: Q07DX002 (ip), vehicle: Klucel (hydroxypropylcellulose) (HPC)) was 18 % of control. The T/C (dose: 160.0 mg/kg/injection, schedule: Q07DX002 (ip), vehicle: saline) was 27 % of control and 29 % of control.
With Cc1nn(CCO)c(C)c1N=[N+]([O-])c1c(C)nn(CCO)c1C the T/C [12] was 116 % of control, the T/C (dose: 6.25 mg/kg/injection, schedule: Q07DX002 (ip), vehicle: saline with Tween-80) was 102 % of control and the T/C [13] was 86 % of control. The T/C [11] was 98 % of control, the T/C [14] was 108 % of control and 91 % of control and the T/C [15] was 100 % of control and 104 % of control. For the same molecule, the T/C [4] was 86 % of control, the T/C [9] was 24 % of control and the T/C [6] was 79 % of control.
C[C@]12CCC(=O)C=C1CC[C@@H]1[C@@H]2C(=O)C[C@@]2(C)[C@H]1CC[C@]2(O)C(=O)CO was tested, and the T/C [16] was 74 % of control, the T/C [15] was 117 % of control and the T/C [17] was 88 % of control. The T/C [8] was 69 % of control, the T/C [18] was 66 % of control and the T/C [9] was 45 % of control. The T/C [19] was 74 % of control, the T/C [10] was 53 % of control and the T/C [20] was 47 % of control. For the same molecule, the T/C (dose: 800.0 mg/kg/injection, schedule: Q07DX002 (ip), vehicle: Klucel (hydroxypropylcellulose) (HPC)) was 66 % of control and the T/C (dose: 1200.0 mg/kg/injection, schedule: Q07DX002 (ip), vehicle: Klucel (hydroxypropylcellulose) (HPC)) was 67 % of control.
C[CH2][Ge]1([CH2]C)[CH2]CC2(CCN(CCCN(C)C)C2)C[CH2]1 was tested, and the T/C (dose: 6.25 mg/kg/injection, schedule: Q07DX002 (ip), vehicle: saline) was 97 % of control, the T/C [1] was 105 % of control and the T/C (dose: 50.0 mg/kg/injection, schedule: Q07DX002 (ip), vehicle: saline) was 110 % of control.
C[C@]12C=CC(=O)C=C1CC[C@@H]1[C@@H]2[C@@H](O)C[C@@]2(C)[C@H]1CC[C@]2(O)C(=O)CO was tested, and the T/C [16] was 100 % of control, the T/C [17] was 56 % of control and the T/C [18] was 58 % of control. The T/C [19] was 30 % of control and the T/C [20] was 24 % of control.
For C1OCN2CSCC12 (stereo not drawn), the T/C [3] was 97 % of control, the T/C [4] was 67 % of control and the T/C [5] was 85 % of control. For the same molecule, the T/C [6] was 79 % of control and the T/C [7] was 80 % of control.
In the case of Clc1ccc(C(c2ccc(Cl)cc2)C(Cl)(Cl)Cl)cc1, the T/C (dose: 4.0 mg/kg/injection, schedule: Q07DX002 (ip), vehicle: Klucel (hydroxypropylcellulose) (HPC)) is reported as 123 % of control, the T/C (dose: 8.0 mg/kg/injection, schedule: Q07DX002 (ip), vehicle: Klucel (hydroxypropylcellulose) (HPC)) is reported as 94 % of control and the T/C (dose: 16.0 mg/kg/injection, schedule: Q07DX002 (ip), vehicle: Klucel (hydroxypropylcellulose) (HPC)) is reported as 112 % of control. For the same molecule, the T/C (dose: 32.0 mg/kg/injection, schedule: Q07DX002 (ip), vehicle: Klucel (hydroxypropylcellulose) (HPC)) was 122 % of control.
In the case of CC[C@@]1(O)C[C@H](OC2CC(N(C)C)C(OC3CC(O)C(OC4CCC(=O)C(C)O4)C(C)O3)C(C)O2)c2c(cc3c(c2O)C(=O)c2c(O)ccc(O)c2C3=O)[C@H]1C(=O)OC (stereo partly drawn), the T/C (dose: 0.5 mg/kg/injection, schedule: Q07DX002 (ip), vehicle: water) is reported as 78 % of control, the T/C (dose: 0.5 mg/kg/injection, schedule: Q07DX003 (ip), vehicle: water) is reported as 100 % of control and the T/C (dose: 1.0 mg/kg/injection, schedule: Q07DX002 (ip), vehicle: water) is reported as 47 % of control. The T/C (dose: 1.0 mg/kg/injection, schedule: Q07DX003 (ip), vehicle: water) was 111 % of control, the T/C (dose: 2.0 mg/kg/injection, schedule: Q07DX002 (ip), vehicle: water) was 84 % of control and the T/C (dose: 2.0 mg/kg/injection, schedule: Q07DX003 (ip), vehicle: water) was 79 % of control. For the same molecule, the T/C (dose: 4.0 mg/kg/injection, schedule: Q07DX002 (ip), vehicle: water) was 44 % of control, the T/C (dose: 4.0 mg/kg/injection, schedule: Q07DX003 (ip), vehicle: water) was 46 % of control and the T/C (dose: 8.0 mg/kg/injection, schedule: Q07DX002 (ip), vehicle: water) was 47 % of control.
With C=C(Cl)C(=NC(C)(C)C)Nc1ccccc1C the T/C [12] was 68 % of control, the T/C [13] was 96 % of control and the T/C [14] was 76 % of control. For the same molecule, the T/C [15] was 84 % of control and the T/C [8] was 113 % of control.
O=c1n[n+]([O-])ccn1C1OC(CO)C(O)C1O (stereo not drawn) was tested, and the T/C [2] was 160 % of control, the T/C (dose: 200.0 mg/kg/injection, schedule: Q07DX002 (ip), vehicle: saline) was 117 % of control and the T/C (dose: 600.0 mg/kg/injection, schedule: Q07DX002 (ip), vehicle: saline) was 73 % of control.
